Data taken from patent US20120277312A1, “Ethylgallate and Related Compounds as a Treatment for Sepsis and Septic Shock” (priority 2009, published 2012).
“Also recorded” adds a separate entry of the source.

Assays:
[1] = system: lysozyme's vasodilatory effect in canine carotid artery preparation; experiment: Lysozyme-induced vasodilation in canine carotid artery preparation (in-vitro); conditions: canine carotid artery preparation, in-vitro
Procedure: Lysozyme produces vasodilation by intrinsically generating hydrogen peroxide (H2O2) that leads to activation of signaling pathways resulting in these hemodynamic effects (7).
Ethyl gallate is added to food as an antioxidant. It is the ethyl ester of gallic acid. Though found naturally in a variety of plant sources including walnuts (8), ethyl gallate is produced from gallic acid and ethanol (9). […] It is of note that if a substance could not inhibit lysozyme's effect in-vitro, then it would be worthless to pursue an in-vivo study.

[2] = Hydrogen peroxide scavenging (Amplex Red assay, electrochemical techniques, glucosidase/glucose assay); assay type: biochemical; conditions: multiple methodologies
From the text: (§1) This generation appears to involve the mechanism described by Wentworth et al in which proteins can utilize water as a catalyst to generate H2O2 (12) Once formed by lysozyme, H2O2 then reacts with intrinsic catalase to form a species of catalase termed Compound I (2) Compound I then acts to generate cyclic-guanosine monophosphate which in turn causes vasodilation. […] These as well as other mechanisms may account for the efficacy of ethyl-gallate treatment in septic shock.

[3] = target: T1, catalase (Homo sapiens, UniProt P04040); experiment: Conversion of catalase to compound I (wave-scan spectroscopy); assay type: biochemical
T1 sequence (P04040 2-527 limits assumed): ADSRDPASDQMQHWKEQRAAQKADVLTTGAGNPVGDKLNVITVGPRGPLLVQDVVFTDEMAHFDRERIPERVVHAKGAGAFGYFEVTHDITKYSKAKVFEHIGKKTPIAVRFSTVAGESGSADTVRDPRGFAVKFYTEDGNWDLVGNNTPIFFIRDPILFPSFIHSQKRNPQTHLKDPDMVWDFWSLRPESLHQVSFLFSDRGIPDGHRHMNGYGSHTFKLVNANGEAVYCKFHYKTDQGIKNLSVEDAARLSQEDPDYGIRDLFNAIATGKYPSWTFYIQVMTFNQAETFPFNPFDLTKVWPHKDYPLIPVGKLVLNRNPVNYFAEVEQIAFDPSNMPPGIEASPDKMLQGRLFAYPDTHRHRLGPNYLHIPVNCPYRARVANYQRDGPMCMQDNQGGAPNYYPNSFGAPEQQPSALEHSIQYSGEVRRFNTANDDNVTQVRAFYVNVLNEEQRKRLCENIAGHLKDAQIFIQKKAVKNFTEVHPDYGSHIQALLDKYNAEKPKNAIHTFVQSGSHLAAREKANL
From the text: as §1

[4] = target: T2, lysozyme (Homo sapiens, UniProt P61626); experiment: Lysozyme-induced hydrogen peroxide generation measured by Ultra Amplex Red assay; assay type: biochemical; conditions: 6.5×10^−6 mol/L lysozyme
T2 sequence (P61626 19-148): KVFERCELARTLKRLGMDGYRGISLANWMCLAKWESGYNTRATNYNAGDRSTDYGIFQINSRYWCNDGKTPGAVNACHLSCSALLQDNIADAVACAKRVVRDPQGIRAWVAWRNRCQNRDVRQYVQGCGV

[5] = In-vivo study of mannitol (not further described)
Procedure: Ethyl gallate is added to food as an antioxidant. It is the ethyl ester of gallic acid. Though found naturally in a variety of plant sources including walnuts (8), ethyl gallate is produced from gallic acid and ethanol (9). […] Thus, ethyl gallate, methyl gallate, and ethyl 3,4 dihydroxybenzoate has unique properties for the treatment of septic shock. It is of note that if a substance could not inhibit lysozyme's effect in-vitro, then it would be worthless to pursue an in-vivo study.

[6] = system: POX-induced vasodilation in carotid and superior mesenteric arterial preparations; experiment: Peroxacetic acid (POX)-induced vasodilation in carotid and superior mesenteric arterial preparations; set-up: species or system canine
From the text: POX is a hydroperoxide (slightly different from the molecule of hydrogen peroxide) that also may be released in septic shock by macrophages and inflammatory cells. […] However, the pathway by which POX caused vasodilation is much different than that caused by lysozyme. […] To some extent, therefore, the improvement in hemodynamics previously observed when ethyl-gallate was infused in our in-vivo study could have also been related to ethyl-gallate's inhibition of the POX pathway in addition to ethyl-gallate's inhibitory-effect on lysozyme mediated pathways.
The only similarity found between lysozyme and POX is that POX's mechanism of action is also independent of the endothelium and nitric oxide formation, since we could not prevent POX's vasodilatory effect by removal of the endothelium or by nitric oxide inhibition. In contrast to lysozyme, POX seems to cause vasodilation is by activation of an enzyme in the vascular tissue called prostaglandin H synthase (PHS). PHS has an important mechanism of action, in that after activation by hydroperoxides (such as POX), it can in turn activate the cyclooxygenase pathway leading to vasodilation.

| Molecule | block of lysozyme's vasodilatory effect [1] | further results |
| --- | --- | --- |
| CC(/C=C/C=C(\C)C(=O)O[C@@H]1O[C@H](CO[C@@H]2O[C@H](CO)[C@@H](O)[C@H](O)[C@H]2O)[C@@H](O)[C@H](O)[C@H]1O)=C\C=C\C=C(C)\C=C\C=C(/C)C(=O)O[C@@H]1O[C@H](CO[C@@H]2O[C@H](CO)[C@@H](O)[C@H](O)[C@H]2O)[C@@H](O)[C@H](O)[C@H]1O [crocin] | failed to block |  |
| O=C(O)c1cc(O)c(O)c(O)c1 [gallic acid, reference compound] | could not block; also recorded: failed to block | scavenging of hydrogen peroxide [2]: can scavenge; inhibition of degradation of catalase to compound I [3]: can also prevent |
| O=c1oc2c(O)c(O)cc3c(=O)oc4c(O)c(O)cc1c4c23 [ellagic acid] | failed to block |  |
| N[C@@H](CCC(=O)N[C@@H](CS)C(=O)NCC(=O)O)C(=O)O [reduced glutathione] | failed to block |  |
| COc1ccccc1O [guaicol] | failed to block |  |
| C=C(C)[C@H]1CC=C(C)CC1 [limonene] | failed to block |  |
| C[S+](C)[O-] [DMSO] |  | inhibition of lysozyme-induced hydrogen peroxide generation [4]: do not inhibit |
| O.O.O=c1c(O)c(-c2ccc(O)c(O)c2)oc2cc(O)cc(O)c12 [quercetin dihydrate] | failed to block |  |
| OC[C@@H](O)[C@@H](O)[C@H](O)[C@H](O)CO [mannitol] | worked | inhibition of lysozyme-induced hydrogen peroxide generation [4]: do not inhibit; effect in-vivo [5]: did not have a positive effect |
| catechin gallate | failed to block |  |
| O=c1cc(-c2ccc(O)c(O)c2)oc2cc(O)cc(O)c12 [luteolin] | failed to block |  |
| [Ba] [barium] |  | inhibition of vasodilation caused by POX [6]: could be prevented |
| CCCOC(=O)c1cc(O)c(O)c(O)c1 [propyl gallate] | failed to block |  |
| COc1cc(/C=C/C(=O)CC(=O)/C=C/c2ccc(O)c(OC)c2)ccc1O [curcumin] | failed to block |  |
| COC(=O)c1cc(O)c(O)c(O)c1 [methyl gallate] | blocked |  |
| COc1ccc2c(c1)c(CC(=O)O)c(C)n2C(=O)c1ccc(Cl)cc1 [indomethacin] |  | inhibition of vasodilation caused by POX [6]: could be inhibited |
| CC(=O)N[C@@H](CS)C(=O)O [N-acetylcyteine] | failed to block |  |
| O=C1O[C@H]([C@@H](O)CO)C([O-])=C1O.[Na+] [sodium ascorbate] | failed to block |  |
| O=C(O[C@@H]1Cc2c(O)cc(O)cc2O[C@@H]1c1ccc(O)c(O)c1)c1cc(O)c(O)c(O)c1 [epicathechin gallate] | failed to block |  |
| O=C([O-])c1ccccc1.[Na+] [sodium benzoate] | failed to block |  |
| CCOC(=O)c1ccc(O)c(O)c1 [ethyl 3,4-dihydroxybenzoate] | blocked |  |
| O=C(O[C@@H]1Cc2c(O)cc(O)cc2O[C@@H]1c1cc(O)c(O)c(O)c1)c1cc(O)c(O)c(O)c1 [epigalloccatechin gallate] | failed to block |  |
| [K+] [potassium] |  | inhibition of vasodilation caused by POX [6]: could be prevented |
